Consider 6 molecules from the supplement of paper PMC4862054.

Settings in all cases: 72 h
Experiment [1] has as its system CAL-148. How it is done:
(§1)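 Drug sensitivity and resistance testing (DSRT) of breast cancer cell lines in 384-well plates, 5 concentrations in 10-fold dilutions over a compound-specific 10,000-fold range. After 72 h, cytotoxicity was read by CellTox Green fluorescence and viability by CellTiter-Glo luminescence (multiplexed), normalised to DMSO and benzethonium chloride controls. EC50 is the inflection point of the fitted dose-response curve (bottom asymptote free, so it can be relative for partial curves) and is censored at the highest tested concentration. Rows with DSS 0 (no meaningful response) were excluded.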

Experiment [2] has as its system CAL-85-1. A digest of the protocol:
(§2)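 EC50 was fitted from dose-response curves and censored at the highest concentration tested. To build those curves, breast cancer cell lines (20 µl suspension) were seeded into 384-well plates containing compound at 5 concentrations in 10-fold steps over a compound-specific 10,000-fold range and incubated for 72 h. Readouts were CellTox Green fluorescence (485/520 nm) for cell death and then CellTiter-Glo luminescence for viability, with each plate normalised to 0.1 % DMSO and a positive kill control.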

Experiment [3] relates to Hs578T. Put shortly: as §2
The subject of experiment [4] is HCC1599. Put shortly:
as §2

In another experiment the test system is SK-BR-3. Put shortly:
as §2

The test system of experiment [5] is MDA-MB-453. A digest of the protocol:
as §2

In experiment [6] the test system is CAL-120. Put shortly:
as §2

Experiment [7] concerns MFM-223. A digest of the protocol:
as §2

The test system of experiment [8] is CAL-120. Put shortly:
(§3)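 Viability of breast cancer cell lines was measured with CellTiter-Blue after 72 h of incubation on compound-loaded 384-well plates. Cells were seeded in 20 µl onto compound dissolved in 5 µl medium, and 2.5 µl reagent was added for 2 h at 37 °C before reading at 560/590 nm. EC50 was fitted from percent-inhibition dose-response data censored at the highest concentration, normalised per plate to vehicle and a positive kill control, with zero drug sensitivity score rows dropped.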
This is another data set of the same source.

Experiment [9] concerns BT-549. Put shortly: as §3
The test system of experiment [10] is Hs578T. A digest of the protocol:
as §3
This is another data set of the same source.

The subject of experiment [11] is MDA-MB-231. A digest of the protocol:
as §3

The subject of experiment [12] is HCC1599. Put shortly:
as §3
This is another data set of the same source.

The test system of experiment [13] is MFM-223. A digest of the protocol:
as §3
This is another data set of the same source.

Experiment [14] deals with BT-474. A digest of the protocol:
as §3

Experiment [15] has as its system HDQ-P1. Put shortly:
as §2

The subject of experiment [16] is MCF-10A. Put shortly: as §2
Another experiment relates to HCC1937. A digest of the protocol: as §2
Experiment [17] concerns MDA-MB-231. Put shortly: as §2
The source holds these as a separate data set.

Experiment [18] has as its system HDQ-P1. A digest of the protocol: as §3
The source holds these as a separate data set.

In experiment [19] the test system is CAL-51. Put shortly:
as §3

Experiment [20] relates to MDA-MB-453. A digest of the protocol:
as §3
The source holds these as a separate data set.

The test system of experiment [21] is MCF-10A. As for the experimental part:
as §1
The source holds these as a separate data set.

In experiment [22] the test system is Hs578T. How it is done: as §1
This is another data set of the same source.

The subject of experiment [23] is MDA-MB-231. How it is done:
as §1
The source holds these as a separate data set.

The test system of experiment [24] is CAL-148. Put shortly: as §2
The source holds these as a separate data set.

For experiment [25], the system named is CAL-148. A digest of the protocol:
as §3
This is another data set of the same source.

Experiment [26] concerns CAL-51. How it is done:
as §1
The source holds these as a separate data set.

Experiment [27] relates to MDA-MB-436. How it is done:
as §1

Experiment [28] concerns MDA-MB-436. Put shortly: as §3
This is another data set of the same source.

Experiment [29] concerns HCC1143. Put shortly:
as §3

Experiment [30] concerns DU-4475. A digest of the protocol: as §2
A further experiment has as its system MDA-MB-468. A digest of the protocol: as §2
For experiment [31], the system named is CAL-51. A digest of the protocol: as §2
The source holds these as a separate data set.

The test system of experiment [32] is MDA-MB-436. A digest of the protocol:
as §2
The source holds these as a separate data set.

In experiment [33] the test system is BT-549. A digest of the protocol: as §2
The source holds these as a separate data set.

Experiment [34] deals with HCC1143. A digest of the protocol: as §2
This is another data set of the same source.

Experiment [35] relates to BT-474. A digest of the protocol:
as §2
The source holds these as a separate data set.

The test system of experiment [36] is DU-4475. Put shortly: as §3
The source holds these as a separate data set.

The test system of experiment [37] is CAL-85-1. A digest of the protocol: as §3
The source holds these as a separate data set.

For the molecule `Cc1cnc(NC(=O)Nc2cc(Br)c(C)cc2OC[C@@H]2CNCCO2)cn1` [Rabusertib], the “EC50, CellTox Green” value with CAL-148 [1] was > 1000 nM. Also, the “EC50, CellTiter-Glo” value with CAL-85-1 [2] was > 1000 nM; in the experiment on Hs578T [3], 354 nM; with HCC1599 [4], 691 nM; with SK-BR-3 it was 918 nM; in the experiment with MDA-MB-453 [5] it was 219 nM.

Regarding `CNC(=O)c1cc(Oc2ccc(NC(=O)Nc3cc(C(C)(C)C)nn3-c3ccc4ncccc4c3)c(F)c2)ccn1` [Rebastinib], the “EC50, CellTiter-Glo” value in the experiment with CAL-120 [6] worked out at 155 nM; with MFM-223 [7], 31.3 nM.

As to `COc1cc2nccc(Oc3ccc(NC(=O)Nc4cc(C)on4)c(Cl)c3)c2cc1OC` [Tivozanib], the “EC50, CellTiter-Blue viability” value in the experiment with CAL-120 [8] amounted to 4610 nM; with BT-549 [9], 7350 nM; in the experiment with Hs578T [10] it was 4590 nM; in the experiment with MDA-MB-231 [11] it was 6790 nM; in the experiment with HCC1599 [12] it was 4650 nM; in the experiment with MFM-223 [13], 344 nM. The “EC50, CellTiter-Blue viability” value was 2500 nM with BT-474 [14], 774 nM in the experiment on HDQ-P1 [18], 7800 nM in the experiment with CAL-51 [19] and 2320 nM in the experiment with MDA-MB-453 [20]. The “EC50, CellTiter-Glo” value in the experiment with HDQ-P1 [15] is 3820 nM; in the experiment on MCF-10A [16] it was 8730 nM; in the experiment on HCC1937, > 10000 nM; in the experiment with MDA-MB-231 [17], 8500 nM; in the experiment with MFM-223 [7], 1820 nM; with MDA-MB-453 [5], 5050 nM.

For the molecule `CC1=C(/C=C/C(C)=C/C=C/C(C)=C/C(=O)O)C(C)(C)CCC1` [Tretinoin], the “EC50, CellTox Green” value with MCF-10A [21] came out at 676 nM; in the experiment on Hs578T [22] it was 130 nM; in the experiment with MDA-MB-231 [23] it was 3200 nM. The “EC50, CellTiter-Blue viability” value in the experiment on HCC1599 [12] is 133 nM; in the experiment with CAL-148 [25] it was 43.5 nM. Besides, the “EC50, CellTiter-Glo” value turned out to be 1990 nM in the experiment on MCF-10A [16]; 6610 nM in the experiment on Hs578T [3]; 354 nM in the experiment on CAL-148 [24]; 2600 nM with MDA-MB-231 [17]; 5530 nM in the experiment on HCC1599 [4]; 2210 nM in the experiment on SK-BR-3. Also, in the experiment with MDA-MB-453 [5], the “EC50, CellTiter-Glo” value stood at 3230 nM.

As for `C1CN1c1nc(N2CC2)nc(N2CC2)n1` [Triethylenemelamine], the “EC50, CellTiter-Blue viability” value came out at 9400 nM with BT-549 [9], 698 nM in the experiment on MDA-MB-231 [11], 3220 nM with CAL-148 [25] and 9220 nM in the experiment with MDA-MB-453 [20].

For `CCCCC(=O)OCC(=O)[C@]1(O)Cc2c(O)c3c(c(O)c2[C@@H](O[C@H]2C[C@H](NC(=O)C(F)(F)F)[C@H](O)[C@H](C)O2)C1)C(=O)c1c(OC)cccc1C3=O` [Valrubicin], the entries for the “EC50, CellTox Green” value in the experiment with CAL-51 [26], in the experiment on MDA-MB-436 [27] and with CAL-148 [1] were 26.1 nM, > 5000 nM and 46.5 nM, respectively. For the same molecule, the “EC50, CellTiter-Blue viability” value with CAL-120 [8] was 281 nM; in the experiment on MDA-MB-436 [28], 1520 nM; with BT-549 [9] it was 1090 nM; with Hs578T [10] it was 1230 nM; with MDA-MB-231 [11] it was 721 nM; in the experiment on HCC1143 [29], 525 nM. In addition, the “EC50, CellTiter-Blue viability” value is 2320 nM in the experiment on HCC1599 [12]; 2810 nM in the experiment with MFM-223 [13]; 916 nM with BT-474 [14]; 236 nM in the experiment on HDQ-P1 [18]; 65.5 nM in the experiment on DU-4475 [36]; 148 nM with CAL-51 [19]. For the same molecule, the “EC50, CellTiter-Blue viability” value in the experiment on CAL-85-1 [37] was 1170 nM; with CAL-148 [25], 123 nM; with MDA-MB-453 [20], 830 nM. The “EC50, CellTiter-Glo” value with HDQ-P1 [15] turned out to be 661 nM; in the experiment with DU-4475 [30] it was 462 nM; in the experiment with MDA-MB-468, 290 nM; in the experiment with CAL-51 [31] it was 162 nM; with MCF-10A [16] it was 746 nM; in the experiment with MDA-MB-436 [32], 311 nM. Also, the “EC50, CellTiter-Glo” value is 794 nM in the experiment on BT-549 [33]; 1340 nM in the experiment on CAL-85-1 [2]; 944 nM with Hs578T [3]; 629 nM in the experiment on HCC1937; 322 nM with CAL-148 [24]; 4480 nM with MDA-MB-231 [17]. In addition, the “EC50, CellTiter-Glo” value was found to be 697 nM in the experiment with HCC1143 [34]; 3220 nM with HCC1599 [4]; 4320 nM in the experiment with MFM-223 [7]; 343 nM in the experiment with SK-BR-3; 2640 nM with BT-474 [35]; 3050 nM in the experiment on MDA-MB-453 [5].
